Data on 12 compounds can be found in US20240239775A1, “FXR REGULATOR, PREPARATION METHOD THEREFOR, PHARMACEUTICAL COMPOSITION THEREOF AND USE THEREOF” (QINGDAO RUIJI MEDICAL TECHNOLOGY CO., LTD., priority 2021, published 2024).

One assay has as its target T1, FXR (Homo sapiens, UniProt Q96RI1).
T1 construct: 5 μL of 20 nM FXR-LBD Complete Coregulator buffer G; purchased ThermoFisher PV4833
T1 sequence (Q96RI1 262-486 limits assumed): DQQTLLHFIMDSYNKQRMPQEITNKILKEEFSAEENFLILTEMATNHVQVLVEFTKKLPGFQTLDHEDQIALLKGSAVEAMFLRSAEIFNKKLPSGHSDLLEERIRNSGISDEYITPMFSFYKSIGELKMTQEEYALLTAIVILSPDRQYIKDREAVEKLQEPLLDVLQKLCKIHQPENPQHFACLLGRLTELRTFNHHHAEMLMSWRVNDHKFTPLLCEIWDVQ
The assay can be described thus: FXR antagonist screening by TR-FRET (LanthaScreen TR-FRET FXR co-activation assay kit). The assay is classed as biochemical. Particulars: Table 1.1, FXR antagonistic activity; TR-FRET with CDCA; geometric means of at least two independent runs. The method, boiled down: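 FXR-LBD (20 nM working solution) mixed with compound, CDCA (200 μM working solution) as agonist, Fluorescein-SRC2-2 and Tb-anti-GST antibody in Coregulator buffer G; 10 h at room temperature. Coactivator recruitment read by TR-FRET, triplicate wells.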
Broadly, the IC50 is the midpoint of a concentration-inhibition curve. On to `Cc1c(C(=O)O)oc2ccc(S(=O)(=O)N(CCc3ccccc3)Cc3ccccc3N3CCN(C(=O)OC(C)(C)C)CC3)cc12` [Example F27-S87, 3-methyl-5-(N-(2-(4-(tert-butoxycarbonyl)piperazin-1-yl)benzyl)-N-phenethylsulfamoyl)benzofuran-2-carboxylic acid], for which the concentration for half-maximal inhibition (IC50) lay within 0.1 to 10 µM.
Turning to `CCOC(=O)c1oc2ccc(S(=O)(=O)N(CCc3ccccc3)c3ccc(Cc4ccccc4)cc3)cc2c1C` [Example M8-11, ethyl 3-methyl-5-(N-(4-benzylphenyl)-N-phenethylsulfamoyl)benzofuran-2-carboxylate], the IC50 is 50 to 100 µM.
Compound `CCOC(=O)c1oc2ccc(S(=O)(=O)N(CCc3ccccc3)c3ccc(N4CCN(Cc5ccccc5)CC4)cc3)cc2c1C` [Example M8-70, ethyl 3-methyl-5-(N-(4-(4-benzylpiperazin-1-yl)phenyl)-N-phenethylsulfamoyl)benzofuran-2-carboxylate] registered an IC50 of 50 to 100 µM.
Same read-out and setting: under `CCOC(=O)c1oc2ccc(S(=O)(=O)N(CCc3ccccc3)c3ccccc3N3CCN(Cc4ccccc4)CC3)cc2c1C` [Example M10-95] stands 50 to 100 µM.
The same measure, in the same setting: for `CCOC(=O)c1oc2ccc(S(=O)(=O)N(CCc3ccccc3)Cc3ccc(Cl)cc3F)cc2c1C` [Example M4-52, ethyl 3-methyl-5-(N-(2-fluoro-4-chlorobenzyl)-N-phenethylsulfamoyl)benzofuran-2-carboxylate] the value was 50 to 100 µM; for `CCOC(=O)c1oc2ccc(S(=O)(=O)N(CCc3ccccc3)c3ccc(N4CCN(C)CC4)cc3)cc2c1C` [Example M8-64, ethyl 3-methyl-5-(N-(4-(4-methylpiperazin-1-yl)phenyl)-N-phenethylsulfamoyl)benzofuran-2-carboxylate], 50 to 100 µM.

The assay is the same for the next values; noted with them: Table 1.2, FXR antagonistic activity; TR-FRET with CDCA; geometric means of at least two independent runs.
For the compound `Cc1c(C(=O)O)oc2ccc(S(=O)(=O)N(CCc3ccccc3)c3ccccc3N3CCN(C(=O)c4ccc[nH]4)CC3)cc12` [Example F27-S124, 5-(N-(2-(4-(1H-pyrrole-2-carbonyl)piperazin-1-yl)phenyl)-N-phenethylsulfamoyl)-3-methylbenzofuran-2-carboxylic acid], the concentration for half-maximal inhibition (IC50) was in the range of 0.1 to 10 µM.
Still for that read-out and setting: under `Cc1c(C(=O)O)oc2ccc(S(=O)(=O)N(CCc3ccccc3)c3ccccc3N3CCN(C(=O)c4cccnc4)CC3)cc12` [Example F27-S116, 3-methyl-5-(N-(2-(4-nicotinoylpiperazin-1-yl)phenyl)-N-phenethylsulfamoyl)benzofuran-2-carboxylic acid] stands 0.1 to 10 µM; under `Cc1c(C(=O)O)oc2ccc(S(=O)(=O)N(CCc3ccccc3)c3ccccc3N3CCN(C(=O)c4ccccc4Cc4ccccc4)CC3)cc12` [Example F27-S134, 5-(N-(2-(4-(2-benzylbenzoyl)piperazin-1-yl)phenyl)-N-phenethylsulfamoyl)3-methylbenzofuran-2-carboxylic acid], 0.1 to 10 µM; under `CCOC(=O)c1oc2ccc(S(=O)(=O)N(CCc3ccccc3)c3ccccc3N3CCC(NC(=O)c4sccc4Br)CC3)cc2c1C` [Example M10-147, ethyl 5-(N-(2-(4-(3-bromothiophene-2-carboxamido)piperidin-1-yl)phenyl)-N-phenethylsulfamoyl)-3-methylbenzofuran-2-carboxylate], 50 to 100 µM.
For the compound `Cc1c(C(=O)O)oc2ccc(S(=O)(=O)N(CCc3ccccc3)c3ccccc3N3CCN(C(=O)c4sccc4Br)C[C@@H]3C)cc12` [Example F27-S152, (S)-5-(N-(2-(4-(3-bromothiophene-2-carbonyl)-2-methylpiperazin-1-yl)phenyl)-N-phenethylsulfamoyl)-3-methylbenzofuran-2-carboxylic acid], the IC50 lay in the range of 0.1 to 10 µM.
The same measure, in the same setting: for `CCOC(=O)c1oc2ccc(S(=O)(=O)N(CCc3ccccc3)c3ccccc3N3CCN(C(=O)c4cc[nH]n4)CC3)cc2c1C` [Example M10-130, Ethyl 5-(N-(2-(4-(1H-pyrazole-3-carbonyl)piperazin-1-yl)phenyl)-N-phenethylsulfamoyl)-3-methylbenzofuran-2-carboxylate] the value was 50 to 100 µM.
